Measurements reported in ChEMBL document CHEMBL1201862, “PubChem BioAssay data set” (2004).
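Five concentrations, 48 hours, 96-well plates. Here, GI50 denotes the concentration required for 50% inhibition of growth.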 Calls of active or inactive are those of the source. Cut-off read from the data, not from the text of the source: active = GI50 up to about 1.1 µM and inactive = higher.

How the values were obtained:
Test in all cases: growth of human tumour cells (NCI), 48 h
HOP-62 = system: HOP-62
HT-29 = system: HT-29
KM-20L2 = system: KM-20L2
M14 = system: M14
M19-MEL = system: M19-MEL
NCI-H23 = system: NCI-H23
NCI-H522 = system: NCI-H522
RXF 393 = system: RXF 393
SK-MEL-28 = system: SK-MEL-28
SN12C = system: SN12C
SNB-78 = system: SNB-78
TK-10 = system: TK-10
XF498 = system: XF498
CAKI-1 = system: CAKI-1
Hs-578T = system: Hs-578T
MCF7 = system: MCF7
MDA-MB-435 = system: MDA-MB-435
MDA-N = system: MDA-N
NCI/ADR-RES = system: NCI/ADR-RES
T47D = system: T47D

SMILES	GI50 (HOP-62)	GI50 (HT-29)	GI50 (KM-20L2)	GI50 (M14)	GI50 (M19-MEL)	GI50 (NCI-H23)	GI50 (NCI-H522)	GI50 (RXF 393)	GI50 (SK-MEL-28)	GI50 (SN12C)	GI50 (SNB-78)	GI50 (TK-10)	GI50 (XF498)	GI50 (CAKI-1)	GI50 (Hs-578T)	GI50 (MCF7)	GI50 (MDA-MB-435)	GI50 (MDA-N)	GI50 (NCI/ADR-RES)	GI50 (T47D)
Nc1nc(-c2ccco2)cc(-c2ccc(CO)o2)n1	> 100 µM (inactive)	> 100 µM (inactive)	> 100 µM (inactive)	> 100 µM (inactive)	> 100 µM (inactive)	> 100 µM (inactive)	85.5 µM (inactive)	> 100 µM (inactive)	> 100 µM (inactive)	> 100 µM (inactive)	> 100 µM (inactive)	> 100 µM (inactive)	> 100 µM (inactive)	–	–	–	–	–	–	–
O=c1c2cc(Br)cc(Br)c2nc(CCCl)n1CCO	> 100 µM (inactive)	> 100 µM (inactive)	> 100 µM (inactive)	97.7 µM (inactive)	94.8 µM (inactive)	49.9 µM (inactive)	62.4 µM (inactive)	47.4 µM (inactive)	52 µM (inactive)	97.5 µM (inactive)	> 100 µM (inactive)	> 100 µM (inactive)	41.7 µM (inactive)	91 µM (inactive)	–	–	–	–	–	–
CC(=O)OCCOCNC(=S)N/N=C/c1ccc(Br)s1	> 100 µM (inactive)	> 100 µM (inactive)	> 100 µM (inactive)	> 100 µM (inactive)	> 100 µM (inactive)	> 100 µM (inactive)	8.17 µM (inactive)	> 100 µM (inactive)	> 100 µM (inactive)	> 100 µM (inactive)	> 100 µM (inactive)	> 100 µM (inactive)	> 100 µM (inactive)	–	–	–	–	–	–	–
O=C1C[C@@H]2[C@@H](c3ccccc3)[C@@H]3C(=O)c4ccccc4NC(=O)[C@H]3[C@]2(O)c2ccccc2N1	> 100 µM (inactive)	> 100 µM (inactive)	> 100 µM (inactive)	> 100 µM (inactive)	> 100 µM (inactive)	> 100 µM (inactive)	> 100 µM (inactive)	> 100 µM (inactive)	> 100 µM (inactive)	> 100 µM (inactive)	> 100 µM (inactive)	> 100 µM (inactive)	> 100 µM (inactive)	–	–	–	–	–	–	–
Cc1cc(NS(=O)(=O)c2ccc(Nc3c4ccccc4nc4c(C(=O)N5CCN(CCO)CC5)cccc34)cc2)no1	> 100 µM (inactive)	> 100 µM (inactive)	> 100 µM (inactive)	> 100 µM (inactive)	> 100 µM (inactive)	> 100 µM (inactive)	79.4 µM (inactive)	22.3 µM (inactive)	> 100 µM (inactive)	> 100 µM (inactive)	> 100 µM (inactive)	> 100 µM (inactive)	> 100 µM (inactive)	> 100 µM (inactive)	–	–	–	–	–	–
CCN(CC)CCOc1ccc(/C=C(\C#N)c2ccc(OCCN(CC)CC)cc2)cc1	10.6 µM (inactive)	1.43 µM (inactive)	1.56 µM (inactive)	7.64 µM (inactive)	14.8 µM (inactive)	17.3 µM (inactive)	11.3 µM (inactive)	12.4 µM (inactive)	16.5 µM (inactive)	45.1 µM (inactive)	20.5 µM (inactive)	> 59.7 µM (inactive)	13.4 µM (inactive)	> 43.7 µM (inactive)	–	–	–	–	–	–
N#Cc1cc([N+](=O)[O-])ccc1NC(=O)C(=O)Nc1n[nH]c(N)n1	> 100 µM (inactive)	> 100 µM (inactive)	> 100 µM (inactive)	> 100 µM (inactive)	> 100 µM (inactive)	> 100 µM (inactive)	> 100 µM (inactive)	> 100 µM (inactive)	> 100 µM (inactive)	> 100 µM (inactive)	> 100 µM (inactive)	> 100 µM (inactive)	> 100 µM (inactive)	> 100 µM (inactive)	–	–	–	–	–	–
O=C1N[C@@H]([C@H]2CC[C@H](Cl)CN2)C(=O)N[C@H]1[C@H]1CC[C@H](Cl)CN1	0.28 µM (active)	1.83 µM (inactive)	4.93 µM (inactive)	0.158 µM (active)	2.47 µM (inactive)	0.292 µM (active)	0.706 µM (active)	2.04 µM (inactive)	4.32 µM (inactive)	0.243 µM (active)	2.94 µM (inactive)	4.42 µM (inactive)	0.184 µM (active)	0.261 µM (active)	5.06 µM (inactive)	0.195 µM (active)	1.06 µM (active)	0.555 µM (active)	0.902 µM (active)	0.297 µM (active)
